Data set [1] can be described thus: phase solubility experiment (solubility in water before and after cyclodextrin inclusion or complexation). Particulars: thermodynamic from solid, Solubility of compounds.
The subject of data set [2] is hepatoma carcinoma cells H22. Kind of data set: in vivo tumor model, subcutaneous H22 tumor in Kunming mice. Particulars: H22 mouse model of Example 25; dose and route not stated at the place. On the procedure:
The Kunming mice (in China) were randomly divided into groups, with 10 mice in each group. The cultivated hepatoma carcinoma cells H22 were inoculated subcutaneously in the oxter of the mice with 200 μL/mouse. After bearing the cancer cells for five days, the subcutaneous tumor was formed. Then the compound 3-thiomorpholinyl-8-oxo-8H-acenaphtho[1,2-b]pyrrole-9-carbonitrile and γ-cyclodextrin inclusion compound thereof were given by peritoneal injection, and the compound to be detected included by γ-cyclodextrin was given by oral administration. The detection conditions comprise:
Blank control group: the mice were not treated in any manner after the bearing cancer;
Control group (1): the mice were given a peritoneal injection of DMSO solution every other day after the bearing cancer, 10 days in total;
Control group (2): the mice were given a peritoneal injection of cyclodextrin solution every other day after the bearing cancer, 10 days in total;
Experimental group (1): the mice were given a peritoneal injection of DMSO solution equivalent to 0.03 mg/kg BW compound every other day after the bearing cancer, 10 days in total;
Experimental group (2): the mice were given a peritoneal injection of DMSO solution equivalent to 0.3 mg/kg BW compound every other day after the bearing cancer, 10 days in total;
Experimental group (3): the mice were given a peritoneal injection of inclusion compound water solution equivalent to 0.3 mg/kg BW compound every other day after the bearing cancer, 10 days in total;
Experimental group (4): the mice were given an intragastric administration of inclusion compounds water solution equivalent to 0.3 mg/kg BW compound every other day after the bearing cancer, 10 days in total;
During the experimental period, the length-diameter (a) and short diameter (b), which was perpendicular to the length-diameter, of the tumor were detected twice every week. The gross tumor volume was determined according to the formula: ½ab^2. The survival time of the animal was observed. The tumor inhibition rate was calculated by the tumor volume on the fortieth day.

For a further data set, the system named is Bcl-2. Kind of data set: Western blotting, inhibition (downregulation) of Bcl-2 in tumor cells, Example 23. In kind it is cell-based. The protocol: (§1) The interest protein was detected by the corresponding antibody. The expression of the interest protein in the cells was detected by horseradish peroxidase-labeled secondary antibodies in combination with ECL coloration method. […] The concentration of the protein bands in the Western images were carried out semiquantitative analysis and normalization treatment with KODAK Gel Logic 1500 imaging system software.
On the technique in general: A western blot detects proteins with antibodies after separation by electrophoresis.

Another data set deals with Mcl-1. The data set can be described thus: Western blotting, inhibition (downregulation) of Mcl-1 in tumor cells, Example 23. In kind it is cell-based. The protocol:
as §1

[3] abbreviates: Table 1, compound per se, before inclusion.

≈ marks a conversion by molar mass, not a printed value.

The solubility is the dissolved amount per volume that the medium holds. Read a high solubility as a readily soluble substance. In turn, `N#CC1=C2C(=NC1=O)c1cccc3c(Sc4ccc(N)cc4)ccc2c13` [3-(4-aminophenylthio)-8-oxo-8H-acenaphtho[1,2-b]pyrrole-9-carbonitrile] registered a solubility in data set [1] (setting [3]) of 0.25 µM (≈ 0.0884 µg/mL).
`O=C(O)C1=C2C(=NC1=O)c1cccc3c(Sc4ccc(Br)cc4)ccc2c13` [3-(4-bromophenylthio)-8-oxo-8H-acenaphtho[1,2-b]pyrrole-9-carboxylic acid]: the solubility in data set [1] (Table 2, compound per se, before complexation) stood at 0.55 µM (≈ 0.24 µg/mL). This molecule also registered a tumor inhibition rate in data set [2] of 45%.
In the case of `COc1ccc(Oc2ccc3c4c(cccc24)C2=NC(=O)C(C#N)=C23)cc1` [3-(4-methoxyphenoxy)-8-oxo-8H-acenaphtho[1,2-b]pyrrole-9-carbonitrile], the concentration in solution in data set [1] (setting [3]) (solubility) was 0.32 µM (≈ 0.113 µg/mL).
`Cc1ccc(Oc2ccc3c4c(cccc24)C2=NC(=O)C(C#N)=C23)cc1` [3-(p-methylphenoxy)-8-oxo-8H-acenaphtho[1,2-b]pyrrole-9-carbonitrile]: the solubility in data set [1] (setting [3]) is 0.25 µM (≈ 0.0841 µg/mL).
As for `CC(C)(C)NC(=O)C1=C2C(=NC1=O)c1cccc3c(Oc4ccccc4)ccc2c13` [3-phenoxy-8-oxo-8H-acenaphtho[1,2-b]pyrrole-9-N-tert-butylamide], the figures for the “downregulation of Bcl-2 protein, semiquantitative analysis (band concentration, control = 1)” value in the data set on Bcl-2 (2 hours) and in the data set with Bcl-2 (6 hours) were 0.80 and 0.56, respectively. Also, the “inhibition against Bcl-2” value with Bcl-2 (Western blotting, tumor cells) was “had the inhibition against Bcl-2 and Mcl-1 proteins”. In addition, the “downregulation of Mcl-1 protein, semiquantitative analysis (band concentration, control = 1)” value in the data set with Mcl-1 (6 hours) came to 0.99; in the data set on Mcl-1 (12 hours) it was 0.99; in the data set with Mcl-1 (18 hours) it was 0.78; with Mcl-1 (24 hours) it was 0.51. For the same molecule, the “inhibition against Mcl-1” value in the data set with Mcl-1 (Western blotting, tumor cells) is “had the inhibition against Bcl-2 and Mcl-1 proteins”.
In data set [1] (setting [3]), `N#CC1=C2C(=NC1=O)c1cccc3c(Sc4ccccc4)ccc2c13` [3-phenylthio-8-oxo-8H-acenaphtho[1,2-b]pyrrole-9-carbonitrile] registered a solubility of 0.22 µM (≈ 0.0744 µg/mL).
As to `NC(=O)C1=C2C(=NC1=O)c1cccc3c(N4CCSCC4)ccc2c13` [3-thiomorpholinyl-8-oxo-8H-acenaphtho[1,2-b]pyrrole-9-carboxamide], in data set [2], the tumor inhibition rate amounted to 45%.
As for `CC(C)c1ccc(Oc2ccc3c4c(cccc24)C2=C(C#N)C(=O)N=C23)cc1` [4-(4-isopropylphenoxy)-8-oxo-8H-acenaphtho[1,2-b]pyrrole-9-carbonitrile], the concentration in solution in data set [1] (setting [3]) (solubility) was 0.12 µM (≈ 0.0437 µg/mL).

Values taken from patent US20110251188A1, “ACENAPHTHO HETEROCYCLE COMPOUNDS, CYCLODEXTRIN INCLUSION COMPOUNDS AND COMPLEXES, AND USES IN THE MANUFACTURES OF BH3 PROTEIN ANALOGUE, BCL-2 FAMILY PROTEIN INHIBITORS THEREOF” (DALIAN UNIVERSITY OF TECHNOLOGY, priority 2008, published 2011).
